Columns and labels:
Assay in all cases: relative viability (nuclei count vs DMSO), 5 days (fraction); higher = more cells survive
[1] = compound: Cc1ccc(C(=O)Nc2ccc(CN3CCN(C)CC3)c(C(F)(F)F)c2)cc1C#Cc1cnc2cccnn12 [Ponatinib] + O=C(CCCCCCC(=O)Nc1ccccc1)NO [Vorinostat] (partner 1 µM)
In short: (§1)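 Relative viability equals treated-well nuclei counts divided by vehicle-well nuclei counts. Counts came from 4× images of lung cancer cell lines grown in 1536-well plates for 5 days after pin-tool dosing on the day after seeding. Dosing used one drug alone or a fixed anchor-drug dose plus five library-drug doses (not always all listed) in √10 steps, and values are medians of duplicate plates.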

[2] = compound: Cc1ccc(C(=O)Nc2ccc(CN3CCN(C)CC3)c(C(F)(F)F)c2)cc1C#Cc1cnc2cccnn12 [Ponatinib] + CC(C)C[C@H](NC(=O)[C@H](Cc1ccccc1)NC(=O)c1cnccn1)B(O)O [Bortezomib] (partner 0.002 µM)
In short: as §1

[3] = compound: Cc1ccc(Nc2nccc(N(C)c3ccc4c(C)n(C)nc4c3)n2)cc1S(N)(=O)=O [Pazopanib] + NC(=O)Nc1cc(-c2cccc(F)c2)sc1C(=O)N[C@H]1CCCNC1 [AZD7762] (partner 0.2 µM)
In short: as §1

[4] = compound: Cc1ccc(Nc2nccc(N(C)c3ccc4c(C)n(C)nc4c3)n2)cc1S(N)(=O)=O [Pazopanib] + N=C(N)NC(=N)NCCc1ccccc1 [Phenformin] (partner 250 µM)
In short: as §1

| Cell Line | relative viability ([1]; first compound 0.002 µM) | relative viability ([1]; first compound 0.006325 µM) | relative viability ([1]; first compound 0.06325 µM) | relative viability ([1]; first compound 0.2 µM) | relative viability ([2]; first compound 0.002 µM) | relative viability ([2]; first compound 0.006325 µM) | relative viability ([2]; first compound 0.06325 µM) | relative viability ([2]; first compound 0.2 µM) | relative viability ([3]; first compound 0.01 µM) | relative viability ([3]; first compound 0.03162 µM) | relative viability ([3]; first compound 0.1 µM) | relative viability ([3]; first compound 0.3162 µM) | relative viability ([3]; first compound 1 µM) | relative viability ([4]; first compound 0.01 µM) | relative viability ([4]; first compound 0.03162 µM) | relative viability ([4]; first compound 0.1 µM) | relative viability ([4]; first compound 0.3162 µM) | relative viability ([4]; first compound 1 µM) |
| --- | --- | --- | --- | --- | --- | --- | --- | --- | --- | --- | --- | --- | --- | --- | --- | --- | --- | --- |
| HCC-44 | 1.1 | 1.07 | 1.07 | 1.07 | 0.825 | 0.804 | 1.07 | 0.872 | 1.07 | 0.979 | 0.979 | 1.01 | 0.982 | 0.216 | 0.213 | 0.256 | 0.234 | 0.213 |
| HCC-827 | 0.736 | 0.78 | 0.821 | 0.801 | 1 | 1.01 | 1.05 | 0.982 | 0.244 | 0.201 | 0.217 | 0.231 | 0.213 | 0.46 | 0.466 | 0.374 | 0.426 | 0.414 |
| NCI-H1623 |  |  |  |  |  |  |  |  |  |  |  |  |  | 0.584 | 0.541 | 0.58 | 0.574 | 0.595 |
| NCI-H2405 | 0.896 | 0.906 | 1.01 | 0.822 | 0.931 | 1.05 | 0.944 | 0.93 | 0.718 | 0.772 | 0.702 | 0.751 | 0.74 | 0.368 | 0.399 | 0.426 | 0.419 | 0.448 |
| PC-3 [JPC-3] |  | 0.703 | 0.868 | 0.898 | 0.826 | 0.812 | 0.961 | 0.815 |  | 0.742 | 0.725 | 0.926 | 0.937 | 0.52 | 0.465 | 0.513 | 0.472 | 0.478 |
| NCI-H1651 | 0.507 | 0.579 | 0.602 | 0.601 | 0.936 | 0.869 | 0.975 | 0.983 | 0.438 | 0.451 | 0.484 | 0.437 | 0.435 | 0.359 | 0.351 | 0.343 | 0.373 | 0.379 |
| HARA |  | 0.491 | 0.548 | 0.46 | 1.06 | 1.1 | 1.21 | 0.861 | 0.428 | 0.303 | 0.255 | 0.35 | 0.349 | 0.43 | 0.363 | 0.486 | 0.467 | 0.479 |
| NCI-H1650 | 0.642 | 0.539 | 0.654 | 0.65 | 0.216 | 0.193 | 0.227 | 0.222 |  |  |  |  |  | 0.405 | 0.559 | 0.418 | 0.537 | 0.464 |
| NCI-H1793 | 0.678 | 0.701 | 0.846 | 0.686 |  |  |  |  |  | 0.674 | 0.481 | 0.593 | 0.44 |  | 0.419 | 0.394 | 0.425 | 0.421 |
| NCI-H2347 | 0.496 | 0.554 | 0.643 | 0.504 |  | 1.08 | 0.962 | 0.938 | 0.682 | 0.711 | 0.773 | 0.822 | 0.787 | 0.218 | 0.385 | 0.38 | 0.468 | 0.377 |
| LU99A | 0.439 | 0.519 | 0.535 | 0.611 | 1.14 | 1.07 | 1.21 | 1.24 |  | 0.347 | 0.466 | 0.343 | 0.384 | 0.725 | 0.943 | 0.796 | 0.923 | 0.945 |
| NCI-H1355 | 0.564 | 0.604 | 0.677 | 0.615 | 1.09 | 1.11 | 1.25 | 1.19 | 0.71 | 0.802 | 0.827 | 0.727 | 0.719 | 0.42 | 0.481 | 0.406 | 0.455 | 0.461 |
| HCC-78 | 0.458 | 0.486 | 0.497 | 0.406 | 0.476 | 0.48 | 0.62 | 0.421 |  | 0.654 | 0.615 | 0.658 | 0.604 | 0.531 | 0.696 | 0.626 | 0.635 | 0.622 |
| NCI-H1563 |  |  |  |  | 0.773 | 0.847 | 0.836 | 0.571 |  |  |  |  |  | 0.64 | 0.664 | 0.673 | 0.722 | 0.758 |
| HCC-15 | 0.826 | 0.829 | 0.949 | 0.809 | 0.919 | 1.04 | 1.16 | 1 | 1.3 | 1.15 | 1.31 | 1.22 | 1.15 | 0.476 | 0.507 | 0.498 | 0.519 | 0.505 |
| LK-2 | 0.261 | 0.284 | 0.341 | 0.345 |  |  |  |  | 0.283 | 0.411 | 0.398 | 0.451 | 0.354 |  | 0.449 | 0.639 | 0.594 | 0.301 |
| COR-L23 | 0.31 | 0.403 | 0.52 | 0.462 | 0.862 | 0.875 | 0.818 | 0.8 |  |  |  |  |  | 0.44 | 0.459 | 0.41 | 0.463 | 0.493 |

— the supplement of paper PMC10307832
